Assays:
[1] = tested on: Liver microsome; assay: Drug metabolism in human liver microsomes assessed as (3R,3aS,4S,4aR,7R,8aR,9aR)-7-amino-4-((E)-2-(5-(3-fluorophenyl)pyridin-2-yl)vinyl)-3-methyldecahydronaphtho[2,3-c]furan-1(3H)-one formation at 10 to 25 uM after 120 mins by LC-MS/MS analysis in presence of orphenadrine; format: ADME; settings: 2 h
[2] = tested on: Liver microsome; assay: Drug metabolism in human liver microsomes assessed as 2-hydroxyethyl (1R,3aR,4aR,6R,8aR,9S,9aS)-9-((E)-2-(5-(3-fluorophenyl)pyridin-2-yl)vinyl)-1-methyl-3-oxododecahydronaphtho[2,3-c]furan-6-ylcarbamate formation at 25 uM after 120 mins by LC-MS/MS analysis in presence of ketoconazole; format: ADME; settings: 2 h
[3] = molecular target: CYP1A2 (Homo sapiens, UniProt P05177); assay: Activity of human recombinant CYP1A2 assessed as enzyme-mediated drug metabolism at 10 uM after 120 mins by LC-MS/MS analysis in presence of NADPH; format: ADME; settings: read-out: Compound recovery
[4] = Drug metabolism in human lung microsomes assessed as 2-hydroxyethyl (1R,3aR,4aR,6R,8aR,9S,9aS)-9-((E)-2-(5-(3-fluorophenyl)pyridin-2-yl)vinyl)-1-methyl-3-oxododecahydronaphtho[2,3-c]furan-6-ylcarbamate formation at 25 uM after 120 mins by LC-MS/MS analysis in presence of NADPH; format: ADME, microsome; settings: 2 h
[5] = molecular target: Cytochrome P450 3A4 (Homo sapiens, UniProt P08684); assay: Drug metabolism assessed as human recombinant CYP3A4-mediated 2-hydroxyethyl (1R,3aR,4aR,6R,8aR,9S,9aS)-9-((E)-2-(5-(3-fluorophenyl)pyridin-2-yl)vinyl)-1-methyl-3-oxododecahydronaphtho[2,3-c]furan-6-ylcarbamate formation at 25 uM after 120 mins by LC-MS/MS analysis in presence of ketoconazole; format: ADME; settings: recombinant enzyme, 2 h
[6] = Drug metabolism in human liver S9 fraction assessed as compound remaining at 10 uM after 120 mins by LC-MS/MS analysis in presence of NADPH; format: ADME, subcellular; settings: read-out: Compound recovery
[7] = molecular target: Cytochrome P450 4F12 (Homo sapiens, UniProt Q9HCS2); assay: Activity of human recombinant CYP4F12 assessed as enzyme-mediated drug metabolism treated with 25 uM vorapaxar after 120 mins by LC-MS/MS analysis in presence of NADPH; format: ADME; settings: 2 h
[8] = molecular target: T1, Cytochrome P450 4F3 (Homo sapiens, UniProt Q08477); assay: Activity of human recombinant CYP4F3A assessed as enzyme-mediated (3R,3aS,4S,4aR,7R,8aR,9aR)-7-amino-4-((E)-2-(5-(3-fluorophenyl)pyridin-2-yl)vinyl)-3-methyldecahydronaphtho[2,3-c]furan-1(3H)-one formation at 25 uM after 120 mins by LC-MS/MS analysis in presence of NADPH; format: ADME; settings: 2 h
T1 sequence (Q08477 whole entry): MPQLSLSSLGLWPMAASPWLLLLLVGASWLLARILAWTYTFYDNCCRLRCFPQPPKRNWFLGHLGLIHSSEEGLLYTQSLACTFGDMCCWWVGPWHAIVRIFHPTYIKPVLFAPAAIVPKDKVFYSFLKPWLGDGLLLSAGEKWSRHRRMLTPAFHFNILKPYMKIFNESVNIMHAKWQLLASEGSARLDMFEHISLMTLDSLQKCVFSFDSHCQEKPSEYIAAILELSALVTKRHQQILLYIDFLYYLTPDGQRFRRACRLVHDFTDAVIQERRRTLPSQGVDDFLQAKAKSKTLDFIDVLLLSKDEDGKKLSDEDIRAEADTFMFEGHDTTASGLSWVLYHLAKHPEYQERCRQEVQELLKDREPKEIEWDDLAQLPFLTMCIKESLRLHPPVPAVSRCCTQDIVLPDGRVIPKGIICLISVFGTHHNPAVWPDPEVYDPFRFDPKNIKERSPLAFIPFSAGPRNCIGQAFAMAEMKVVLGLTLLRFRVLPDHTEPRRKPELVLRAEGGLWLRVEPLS

[9] = molecular target: Cytochrome P450 2C9 (Homo sapiens, UniProt P11712); assay: Activity of human recombinant CYP2C9 assessed as enzyme-mediated drug metabolism at 10 uM after 120 mins by LC-MS/MS analysis; format: ADME; settings: 2 h
[10] = tested on: Liver microsome; assay: Drug metabolism in human liver microsomes assessed as (3R,3aS,4S,4aR,7R,8aR,9aR)-7-amino-4-((E)-2-(5-(3-fluorophenyl)pyridin-2-yl)vinyl)-3-methyldecahydronaphtho[2,3-c]furan-1(3H)-one formation per nmol of enzyme at 25 uM after 120 mins by LC-MS/MS analysis; format: ADME; settings: 2 h
[11] = molecular target: T2, Cytochrome P450 1A1 (Homo sapiens, UniProt P04798); assay: Activity of human recombinant CYP1A1 assessed as enzyme-mediated 2-hydroxyethyl (1R,3aR,4aR,6R,8aR,9S,9aS)-9-((E)-2-(5-(3-fluorophenyl)pyridin-2-yl)vinyl)-1-methyl-3-oxododecahydronaphtho[2,3-c]furan-6-ylcarbamate formation at 25 uM after 120 mins by LC-MS/MS analysis in presence of NADPH; format: ADME; settings: 2 h
T2 sequence (P04798 whole entry): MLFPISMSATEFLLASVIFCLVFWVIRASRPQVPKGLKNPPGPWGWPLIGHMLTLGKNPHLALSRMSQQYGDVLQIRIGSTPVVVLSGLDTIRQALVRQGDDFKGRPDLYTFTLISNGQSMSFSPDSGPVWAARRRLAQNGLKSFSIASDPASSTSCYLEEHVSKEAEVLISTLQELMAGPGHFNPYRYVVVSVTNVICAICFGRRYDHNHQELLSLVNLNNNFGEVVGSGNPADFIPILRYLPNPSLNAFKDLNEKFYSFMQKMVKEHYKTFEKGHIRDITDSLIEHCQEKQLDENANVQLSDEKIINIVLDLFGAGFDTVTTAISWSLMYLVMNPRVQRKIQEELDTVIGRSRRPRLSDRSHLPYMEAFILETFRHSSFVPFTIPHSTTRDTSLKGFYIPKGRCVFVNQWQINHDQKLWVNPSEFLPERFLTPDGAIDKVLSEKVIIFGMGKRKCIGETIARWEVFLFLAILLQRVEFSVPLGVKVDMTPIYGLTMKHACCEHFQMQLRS

[12] = molecular target: Cytochrome P450 2C18 (Homo sapiens, UniProt P33260); assay: Activity of human recombinant CYP2C18 assessed as enzyme-mediated 2-hydroxyethyl (1R,3aR,4aR,6R,8aR,9S,9aS)-9-((E)-2-(5-(3-fluorophenyl)pyridin-2-yl)vinyl)-1-methyl-3-oxododecahydronaphtho[2,3-c]furan-6-ylcarbamate formation at 25 uM after 120 mins by LC-MS/MS analysis in presence of NADPH; format: ADME; settings: 2 h
[13] = molecular target: Cytochrome P450 2D6 (Homo sapiens, UniProt P10635); assay: Activity of human recombinant CYP2D6 assessed as enzyme-mediated 2-hydroxyethyl (1R,3aR,4aR,6R,8aR,9S,9aS)-9-((E)-2-(5-(3-fluorophenyl)pyridin-2-yl)vinyl)-1-methyl-3-oxododecahydronaphtho[2,3-c]furan-6-ylcarbamate formation at 25 uM after 120 mins by LC-MS/MS analysis in presence of NADPH; format: ADME; settings: 2 h
[14] = tested on: Liver microsome; assay: Intrinsic clearance in human liver microsomes assessed as (3R,3aS,4S,4aR,7R,8aR,9aR)-7-amino-4-((E)-2-(5-(3-fluorophenyl)pyridin-2-yl)vinyl)-3-methyldecahydronaphtho[2,3-c]furan-1(3H)-one formation by measuring Vmax/Km per nmol of enzyme after 120 mins by LC-MS/MS analysis; format: ADME; settings: 2 h

CYP1A2, sequence (P05177 whole entry): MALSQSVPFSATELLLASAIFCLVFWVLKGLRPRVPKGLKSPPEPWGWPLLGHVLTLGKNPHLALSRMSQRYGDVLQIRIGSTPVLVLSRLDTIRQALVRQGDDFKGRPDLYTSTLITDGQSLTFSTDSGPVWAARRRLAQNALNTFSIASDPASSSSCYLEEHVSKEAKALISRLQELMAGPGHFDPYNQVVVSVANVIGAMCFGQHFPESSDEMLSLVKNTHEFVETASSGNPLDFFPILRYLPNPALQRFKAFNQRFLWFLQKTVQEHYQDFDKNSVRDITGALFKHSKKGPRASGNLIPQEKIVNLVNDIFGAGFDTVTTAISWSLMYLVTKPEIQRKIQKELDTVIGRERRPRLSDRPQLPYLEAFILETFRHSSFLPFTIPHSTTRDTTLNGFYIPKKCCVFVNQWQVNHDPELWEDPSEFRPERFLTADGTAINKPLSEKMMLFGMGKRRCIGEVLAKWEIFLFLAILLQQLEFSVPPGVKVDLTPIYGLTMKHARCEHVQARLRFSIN
Cytochrome P450 3A4, sequence (P08684 whole entry): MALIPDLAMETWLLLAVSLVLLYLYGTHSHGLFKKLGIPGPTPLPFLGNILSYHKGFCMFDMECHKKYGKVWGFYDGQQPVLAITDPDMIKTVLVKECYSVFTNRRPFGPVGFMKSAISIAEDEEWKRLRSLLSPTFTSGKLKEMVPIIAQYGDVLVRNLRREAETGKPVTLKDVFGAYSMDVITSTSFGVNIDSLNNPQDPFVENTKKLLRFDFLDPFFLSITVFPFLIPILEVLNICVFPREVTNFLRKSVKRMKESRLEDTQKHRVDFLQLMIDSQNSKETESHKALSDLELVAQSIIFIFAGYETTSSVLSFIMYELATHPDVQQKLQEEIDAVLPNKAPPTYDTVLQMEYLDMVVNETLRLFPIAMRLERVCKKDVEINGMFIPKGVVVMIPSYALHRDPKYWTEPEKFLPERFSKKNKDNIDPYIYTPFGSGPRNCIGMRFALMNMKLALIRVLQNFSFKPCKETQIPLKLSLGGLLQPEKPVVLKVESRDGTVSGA
Cytochrome P450 2D6, sequence (P10635 whole entry): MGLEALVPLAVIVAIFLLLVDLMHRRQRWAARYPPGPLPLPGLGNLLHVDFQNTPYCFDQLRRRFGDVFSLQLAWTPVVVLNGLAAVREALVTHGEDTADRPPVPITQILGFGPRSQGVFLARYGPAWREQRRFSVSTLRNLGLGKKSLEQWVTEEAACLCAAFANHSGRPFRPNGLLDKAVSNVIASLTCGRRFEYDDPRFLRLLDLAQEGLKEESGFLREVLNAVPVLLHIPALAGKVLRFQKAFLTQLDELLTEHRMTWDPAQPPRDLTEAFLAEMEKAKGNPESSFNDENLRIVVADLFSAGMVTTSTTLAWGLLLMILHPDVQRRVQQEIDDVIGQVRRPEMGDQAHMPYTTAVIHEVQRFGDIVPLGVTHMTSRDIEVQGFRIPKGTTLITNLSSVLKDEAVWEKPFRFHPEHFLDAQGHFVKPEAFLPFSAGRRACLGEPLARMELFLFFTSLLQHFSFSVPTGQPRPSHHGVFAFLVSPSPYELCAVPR
Cytochrome P450 2C18, sequence (P33260 whole entry): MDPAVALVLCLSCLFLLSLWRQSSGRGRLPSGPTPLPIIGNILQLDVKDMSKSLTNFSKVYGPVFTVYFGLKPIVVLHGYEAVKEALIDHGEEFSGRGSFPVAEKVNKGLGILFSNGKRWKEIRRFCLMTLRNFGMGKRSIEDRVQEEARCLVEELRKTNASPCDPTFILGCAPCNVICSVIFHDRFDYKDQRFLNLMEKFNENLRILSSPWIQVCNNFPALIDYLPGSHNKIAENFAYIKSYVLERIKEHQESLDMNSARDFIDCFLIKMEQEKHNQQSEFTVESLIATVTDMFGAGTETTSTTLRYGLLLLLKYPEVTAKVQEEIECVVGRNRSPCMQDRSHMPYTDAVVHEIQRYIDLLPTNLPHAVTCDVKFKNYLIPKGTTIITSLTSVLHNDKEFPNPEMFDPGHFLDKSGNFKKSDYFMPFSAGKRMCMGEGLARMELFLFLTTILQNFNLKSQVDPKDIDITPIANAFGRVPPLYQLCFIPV
Cytochrome P450 4F12, sequence (Q9HCS2 whole entry): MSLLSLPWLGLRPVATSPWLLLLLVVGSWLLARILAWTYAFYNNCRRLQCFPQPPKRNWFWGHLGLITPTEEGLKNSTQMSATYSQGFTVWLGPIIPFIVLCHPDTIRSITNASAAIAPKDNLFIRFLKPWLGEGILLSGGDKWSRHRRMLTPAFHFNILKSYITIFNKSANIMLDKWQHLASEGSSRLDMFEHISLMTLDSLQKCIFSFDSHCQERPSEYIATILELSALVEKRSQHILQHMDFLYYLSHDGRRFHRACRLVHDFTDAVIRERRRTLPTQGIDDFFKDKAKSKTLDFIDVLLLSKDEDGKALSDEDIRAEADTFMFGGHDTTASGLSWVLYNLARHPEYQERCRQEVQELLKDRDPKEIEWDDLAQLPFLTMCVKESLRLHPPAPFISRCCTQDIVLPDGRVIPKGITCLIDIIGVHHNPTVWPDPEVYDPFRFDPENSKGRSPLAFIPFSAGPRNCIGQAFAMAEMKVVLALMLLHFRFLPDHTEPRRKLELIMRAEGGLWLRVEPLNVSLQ
Cytochrome P450 2C9, sequence (P11712 whole entry): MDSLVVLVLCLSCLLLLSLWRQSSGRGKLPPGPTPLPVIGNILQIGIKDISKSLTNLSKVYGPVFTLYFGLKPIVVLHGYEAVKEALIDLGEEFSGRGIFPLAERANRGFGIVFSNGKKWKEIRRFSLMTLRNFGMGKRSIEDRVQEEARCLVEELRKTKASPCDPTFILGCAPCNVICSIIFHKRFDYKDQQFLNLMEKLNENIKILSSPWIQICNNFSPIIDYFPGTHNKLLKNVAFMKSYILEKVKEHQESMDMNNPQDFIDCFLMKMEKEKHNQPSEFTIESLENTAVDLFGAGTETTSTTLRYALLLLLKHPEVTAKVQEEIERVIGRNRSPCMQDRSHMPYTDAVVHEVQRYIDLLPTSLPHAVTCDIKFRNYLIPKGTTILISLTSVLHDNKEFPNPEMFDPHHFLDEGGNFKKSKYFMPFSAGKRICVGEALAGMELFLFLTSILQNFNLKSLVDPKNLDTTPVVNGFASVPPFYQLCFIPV

CCOC(=O)N[C@@H]1CC[C@@H]2[C@@H](C1)C[C@H]1C(=O)O[C@H](C)[C@H]1[C@H]2/C=C/c1ccc(-c2cccc(F)c2)cn1 [VORAPAXAR]
Drug metabolism [1]: metabolite_not_detected
Drug metabolism [2]: metabolite_not_detected
remaining at 2 h, 10 µM [3]: 98.3%
Drug metabolism [4]: metabolite_detected
Drug metabolism [5]: metabolite_not_detected
remaining at 2 h, 10 µM [6]: 95.7%

C[C@H]1OC(=O)[C@@H]2C[C@@H]3C[C@H](NC(=O)OCCO)CC[C@H]3[C@H](/C=C/c3ccc(-c4cccc(F)c4)cn3)[C@H]12
Drug metabolism [7]: metabolite_detected

CCOC(=O)N[C@@H]1CC[C@@H]2[C@@H](C1)C[C@H]1C(=O)O[C@H](C)[C@H]1[C@H]2/C=[14CH]/c1ccc(-c2cccc(F)c2)cn1
Drug metabolism [8]: metabolite_detected
Drug metabolism [9]: metabolite_not_detected
Vmax [10]: 30 pmol/min
Drug metabolism [11]: metabolite_detected
Drug metabolism [12]: metabolite_detected
Drug metabolism [13]: metabolite_detected
CLH [14]: 2.46 µL/min

Source: ChEMBL document CHEMBL3526033, “Identification of human liver cytochrome P450 enzymes involved in the metabolism of SCH 530348 (Vorapaxar), a potent oral thrombin protease-activated receptor 1 antagonist” (Drug Metab Dispos, 2011)
